Here are results for 20 compounds from patent publication US9637493B2, “Substituted pyrrolopyrimidines as HDM2 inhibitors” (Merck Sharp & Dohme Corp., priority 2012, dated 2017).

Structures are written as SMILES.

Chain of HDM2 (Q00987 17-125): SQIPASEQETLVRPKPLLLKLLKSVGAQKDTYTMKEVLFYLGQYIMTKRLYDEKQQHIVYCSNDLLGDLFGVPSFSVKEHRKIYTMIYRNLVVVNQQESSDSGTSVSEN

The experiment concerns the target HDM2 (Homo sapiens (Human), UniProt Q00987). In words: HDM2 FRET assay (inhibition of p53 peptide binding to HDM2). The following applies: truncated HDM2 residues 17 to 125, 0.5 nM; FITC labeled 8-mer peptide 3 nM; two hour incubation at room temperature. The procedure:
Methods: An HDM2 FRET assay was developed to assess the compounds' inhibitory activity towards binding of p53 protein. […] (containing p53 binding surface, Science (1994) 265, 346-355), with N-terminal His and Thioredoxin tag was generated in pET32a expression vector and expressed in E. coli strain BL21(DE3)Rosetta. Protein was purified using Ni-affinity chromatography, followed by size exclusion chromatography using Superdex 75 26/60 column. […] After two hour incubation at room temperature in a humidified chamber plates were read on EnVision plate reader with the following settings: excitation: UV, […], two emission filters: 520 nm and 495 nm respectively. […] IC50 DETERMINATIONS: Dose-response curves were plotted from the inhibition data, from 10 point serial dilutions of inhibitory compounds. Concentration of compound was plotted against em520/Cem495 ratio signal. To generate IC50 values, the dose-response curves were fitted to a standard sigmoidal curve and IC50 values were derived by nonlinear regression analysis.
In turn, `Cc1cccc(-c2cc3nc(C(=O)O)nc(N[C@H](C)C4CCC4)c3n2Cc2ccc(C(F)(F)F)cn2)c1` [Example 2.2, 4-{[(1R)-1-cyclobutylethyl]amino}-6-(3-methylphenyl)-5-{[5-(trifluoromethyl)pyridin-2-yl]methyl}-5H-pyrrolo[3,2-d]pyrimidine-2-carboxylic acid] came in with an IC50 of 844 nM.

`Cc1cccc(-c2cc3nc(C(=O)O)nc(N[C@H](C)C4CCC4)c3n2Cc2ccc(OC(F)(F)F)cc2)c1` [Example 2.3, 4-{[(1R)-1-cyclobutylethyl]amino}-6-(3-methylphenyl)-5-[4-(trifluoromethoxy)benzyl]-5H-pyrrolo[3,2-d]pyrimidine-2-carboxylic acid]: the IC50 stood at 348 nM.

Regarding `Cc1cccc(-c2cc3nc(C(=O)O)nc(N[C@H](C)C4CCC4)c3n2Cc2ccc(Br)c(F)c2)c1` [Example 3.4, 5-(4-bromo-3-fluorobenzyl)-4-{[(1R)-1-cyclobutylethyl]amino}-6-(3-methylphenyl)-5H-pyrrolo[3,2-d]pyrimidine-2-carboxylic acid], the IC50 stood at 15 nM.

For the compound `Cc1cccc(-c2cc3nc(C(=O)O)nc(N[C@H](C)C4CCC4)c3n2Cc2ccc(C(F)(F)F)cc2N)c1` [Example 2.1, 5-[2-amino-4-(trifluoromethyl)benzyl]-4-{[(1R)-1-cyclobutylethyl]amino}-6-(3-methylphenyl)-5H-pyrrolo[3,2-d]pyrimidine-2-carboxylic acid], the IC50 was determined as 11 nM.

For `Cc1cccc(-c2cc3nc(C(=O)O)nc(N[C@H](C)C4CCC4)c3n2Cc2ccc(C(F)F)cc2)c1` [Example 3.2, 4-{[(1R)-1-cyclobutylethyl]amino}-5-[4-(difluoromethyl)benzyl]-6-(3-methylphenyl)-5H-pyrrolo[3,2-d]pyrimidine-2-carboxylic acid], the IC50 was 530 nM.

For the compound `C[C@H]1CC[C@H](Cn2ccc3nc(-c4n[nH]c(=O)o4)nc(-c4cncc(Cl)c4)c32)CC1` [Example 4.5, 5-{4-(5-chloropyridin-3-yl)-5-[(trans-4-methylcyclohexyl)methyl]-5H-pyrrolo[3,2-d]pyrimidin-2-yl}-1,3,4-oxadiazol-2(3H)-one], the IC50 turned out to be 95 nM. Against the preceding compound, the IC50 is about 5.6-fold lower.

As for `C[C@H]1CC[C@H](Cn2cc(CCc3cccnc3)c3nc(-c4noc(=O)[nH]4)nc(-c4cncc(Cl)c4)c32)CC1` [Example 6.2, 3-[4-(5-chloropyridin-3-yl)-5-[(trans-4-methylcyclohexyl)methyl]-7-(2-pyridin-3-ylethyl)-5H-pyrrolo[3,2-d]pyrimidin-2-yl]-1,2,4-oxadiazol-5(4H)-one], the IC50 came out at 13 nM.

In turn, `Cc1cccc(-c2cc3nc(C(=O)O)nc(N[C@H](C)C4CCC4)c3n2Cc2ccc(OC(F)(F)F)c(F)c2)c1` [Example 2.4, 4-{[(1R)-1-cyclobutylethyl]amino}-5-[3-fluoro-4-(trifluoromethoxy)benzyl]-6-(3-methylphenyl)-5H-pyrrolo[3,2-d]pyrimidine-2-carboxylic acid] came in with an IC50 of 267 nM.

For the compound `COc1ccc(C)cc1-c1cc2nc(C(=O)O)nc(N[C@H](C)C3CCC3)c2n1Cc1ccc(C(F)(F)F)cc1` [Example 1.5, 4-{[(1R)-1-cyclobutylethyl]amino}-6-(2-methoxy-5-methylphenyl)-5-[4-(trifluoromethyl)benzyl]-5H-pyrrolo[3,2-d]pyrimidine-2-carboxylic acid], the IC50 is 42 nM. Against the preceding compound, the IC50 is about 6.4-fold lower.

The compound `CC(C)Cc1cn(C[C@H]2CC[C@H](C)CC2)c2c(-c3cncc(Cl)c3)nc(C(=O)O)nc12` [Example 5.7, 4-(5-chloropyridin-3-yl)-5-[(trans-4-methylcyclohexyl)methyl]-7-(2-methylpropyl)-5H-pyrrolo[3,2-d]pyrimidine-2-carboxylic acid] had an IC50 of 71 nM.

In the case of `Cc1cccc(-c2cc3nc(C(=O)O)nc(N[C@H](C)C4CCC4)c3n2Cc2ccc(C(F)(F)F)nc2)c1` [Example 3.3, 4-{[(1R)-1-cyclobutylethyl]amino}-6-(3-methylphenyl)-5-{[6-(trifluoromethyl)pyridin-3-yl]methyl}-5H-pyrrolo[3,2-d]pyrimidine-2-carboxylic acid], the IC50 was 178 nM.

The compound `Cc1c(-c2cc(C(C)C)ccn2)n(Cc2ccc(C(F)(F)F)cc2)c2c(N[C@H](C)C3CCC3)nc(C(=O)O)nc12` [Example 1.11, 4-{[(1R)-1-cyclobutylethyl]amino}-7-methyl-6-[4-(1-methylethyl)pyridin-2-yl]-5-[4-(trifluoromethyl)benzyl]-5H-pyrrolo[3,2-d]pyrimidine-2-carboxylic acid] displayed an IC50 of 50 nM. This IC50 is about 3.6-fold lower than that of the compound before.

With `COc1ccc(Cn2c(-c3cccc(C)c3)cc3nc(C(=O)O)nc(N[C@H](C)C4CCC4)c32)cc1` [Example 2.8, 4-{[(1R)-1-cyclobutylethyl]amino}-5-(4-methoxybenzyl)-6-(3-methylphenyl)-5H-pyrrolo[3,2-d]pyrimidine-2-carboxylic acid], the IC50 was 6190 nM.

In the case of `C[C@H]1CC[C@H](Cn2cc(Cc3cccnc3)c3nc(-c4noc(=O)[nH]4)nc(-c4cncc(Cl)c4)c32)CC1` [Example 7.1, 3-[4-(5-chloropyridin-3-yl)-5-[(trans-4-methylcyclohexyl)methyl]-7-(pyridin-3-ylmethyl)-5H-pyrrolo[3,2-d]pyrimidin-2-yl]-1,2,4-oxadiazol-5(4H)-one], the IC50 came to 52 nM.

`Cc1ccc(F)c(-c2cc3nc(C(=O)O)nc(N[C@H](C)C4CCC4)c3n2Cc2ccc(C(F)(F)F)cc2)c1` [Example 1.1, (R)-4-((1-cyclobutylethyl)amino)-6-(2-fluoro-5-methylphenyl)-5-(4-(trifluoromethyl)benzyl)-5H-pyrrolo[3,2-d]pyrimidine-2-carboxylic acid]: the half-inhibitory concentration (IC50) worked out at 62 nM.

In the case of `C[C@H]1CC[C@H](Cn2c(C(F)c3ccccc3F)cc3nc(C(=O)O)nc(-c4cncc(Cl)c4)c32)CC1` (mixture of isomers) [Example 8.1, 4-(5-chloropyridin-3-yl)-6-[fluoro(2-fluorophenyl)methyl]-5-[(trans-4-methylcyclohexyl)methyl]-5H-pyrrolo[3,2-d]pyrimidine-2-carboxylic acid], the concentration for half-maximal inhibition (IC50) amounted to 3 nM. Compared with the last compound, the IC50 is about 21-fold lower.

`Cc1ccc(F)c(-c2cn(Cc3ccc(C(F)(F)F)cc3)c3c(N[C@H](C)C4CCC4)nc(C(=O)O)nc23)c1` [Example 1.2, (R)-4-((1-cyclobutylethyl)amino)-7-(2-fluoro-5-methylphenyl)-5-(4-(trifluoromethyl)benzyl)-5H-pyrrolo[3,2-d]pyrimidine-2-carboxylic acid] came in with an IC50 of 353 nM.

In turn, `C[C@H]1CC[C@H](Cn2c(C(F)c3ccccc3F)cc3nc(-c4noc(=O)[nH]4)nc(-c4cncc(Cl)c4)c32)CC1` (stereo partly drawn) [Example 8.2, 3-{4-(5-chloropyridin-3-yl)-6-[fluoro(2-fluorophenyl)methyl]-5-[(trans-4-methylcyclohexyl)methyl]-5H-pyrrolo[3,2-d]pyrimidin-2-yl}-1,2,4-oxadiazol-5(4H)-one] came in with an IC50 of 2 nM. This IC50 lies about 180-fold lower than the previous one.

As to `Cc1ccc(Cl)c(-c2cn(Cc3ccc(C(F)(F)F)cc3)c3c(N[C@H](C)C4CCC4)nc(C(=O)O)nc23)c1` [Example 1.8, 7-(2-chloro-5-methylphenyl)-4-{[(1R)-1-cyclobutylethyl]amino}-5-[4-(trifluoromethyl)benzyl]-5H-pyrrolo[3,2-d]pyrimidine-2-carboxylic acid], the IC50 was found to be 712 nM.

Regarding `C[C@H]1CC[C@H](Cn2ccc3nc(C(=O)O)nc(-c4cncc(Cl)c4)c32)CC1` [Example 4.3, 4-(5-chloropyridin-3-yl)-5-[(trans-4-methylcyclohexyl)methyl]-5H-pyrrolo[3,2-d]pyrimidine-2-carboxylic acid], the half-maximal inhibitory concentration (IC50) stood at 247 nM.
